Assay results published in patent US11364277B2, “Treatment of ascites” (BioVie Inc., priority 2015, dated 2022).
Where “and” joins values, the source holds several entries; their conditions need not be identical. Equal values may be shown once. Where a SMILES comes first, the peptide text is derived from it. Bridges are numbered along the chain shown (N, C = ends).

Tests used:
[1] = human, in vivo; cited from earlier work
[2] = system: subjects with ascites due to liver cirrhosis, not type 1 or type 2 HRS; format: in vivo, human
Experimental: 15 subjects that are to be confirmed to have ascites, but not type 1 or type 2 HRS, due to liver cirrhosis will be administered continuous low dose (escalating from 2.0 to 3.0 mg per 24 hours) terlipressin via ambulatory infusion pump. […] Accordingly, continuous infusion pump (CIP) terlipressin represents a potentially life-saving solution for these seriously ill patients who are still ambulatory (have not yet been administered to the hospital for treatment) and have not developed type 1 or type 2 HRS.

[3] = human, in vivo, cited from earlier work
[4] = system: HRS patients with diuretic intractable or refractory ascites; experiment: Example 2: six HRS patients with ascites treated with continuous infusion terlipressin, evaluated before, during and after treatment; format: in vivo, human; conditions: for Body Weight After / Plasma Sodium After / Serum Creatinine After / Serum Urea After: after treatment;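 on Serum Urea After: serum urea in mmol/L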;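 on Serum Urea During: serum urea in mmol/L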
Experimental: Six FIRS patients treated with continuous infusion terlipressin were evaluated for improvement in […]. All six patients had diuretic intractable or refractory ascites (5 of 6 with hyponatremia). The patients were evaluated for the following parameters before, during and after treatment: number of paracentesis procedures per month, volume of ascites removed, weight, serum sodium, urinary sodium excretion, serum creatinine, serum urea, and whether diuretics were included in the treatment regimen.

[5] = Average (excludes patients #2, #3, #5)
[6] = Patient 1, max. dose 12 mg/day, 63 days
[7] = Patient 1, max. dose 12 mg/day, 63 days, diuretics during: A
[8] = Patient 2, max. dose 12 mg/day, 195 days
[9] = Patient 2, max. dose 12 mg/day, 195 days, diuretics during: None
[10] = Patient 3, max. dose 3 mg/day, 10 days
[11] = Patient 3, max. dose 3 mg/day, 10 days, diuretics during: None
[12] = Patient 4, max. dose 10 mg/day, 11 days
[13] = Patient 4, max. dose 10 mg/day, 11 days, diuretics during: None
[14] = Patient 5, max. dose 3 mg/day, 22 days
[15] = Patient 5, max. dose 3 mg/day, 22 days, diuretics during: None
[16] = Patient 6, max. dose 2 mg/day, 12 days
[17] = Patient 6, max. dose 2 mg/day, 12 days, diuretics during: F + A

NCCCC[C@H](NC(=O)[C@@H]1CCCN1C(=O)[C@@H]1CSSC[C@H](NC(=O)CNC(=O)CNC(=O)CN)C(=O)N[C@@H](Cc2ccc(O)cc2)C(=O)N[C@@H](Cc2ccccc2)C(=O)N[C@@H](CCC(N)=O)C(=O)N[C@@H](CC(N)=O)C(=O)N1)C(=O)NCC(N)=O [terlipressin] (H-GGGCYFQNCPKG-NH2; disulfide 4-9)
half-life [1]: 26 min | severity of ascites and accumulation of ascites fluid ([2]; 2.0 to 3.0 mg per 24 hours escalating, 1 day to 28 days, expected): decrease the severity of ascites and the accumulation of ascites fluid | average amount of fluid withdrawn after beginning therapy ([2]; compared to prior to the start of treatment, expected): significantly less than prior to the start of treatment | number of paracentesis procedures required over a 28-day period ([2]; compared to the 28-day period prior to treatment inception, expected): reduce the number of paracentesis procedures | safety of continuous infusion pump terlipressin ([2]; human, in vivo): no serious side effects | patients with side effects ([3]; iv): up to 40% | patients with severe side effects requiring discontinuation of treatment [3]: up to 10% | Plasma Sodium % Change ([4]; Average): 5% | Plasma Sodium During ([4]; Average): 135 mEq/L | Serum Creatinine % Change ([4]; Average): −47% | Serum Creatinine During ([4]; Average): 127 µM | Serum Urea % Change ([4]; Average): −45% | Serum Urea During ([4]; Average): 15.1 mmol/L | Body Weight % Change ([4]; Average (excludes Patient #4)): −11% | Body Weight During ([4]; Average (excludes Patient #4)): 73 kg | Body Weight After ([4]; Average (excludes Patient #4)): 87 kg | Paracenteses/Month % Change ([4]; Average (excludes patient #1)): −32% | Volume Fluid Removed/Month % Change ([4]; Average (excludes patient #1)): −55% | Volume Fluid Removed/Month During ([4]; Average (excludes patient #1)): 14 L | Urinary Na over 24 hours % Change [4, 5]: 1632% | Urinary Na over 24 hours During [4, 5]: 127 mEq/24 hr | Plasma Sodium After ([4]; Average): 136 mEq/L | Serum Creatinine After ([4]; Average): 105 µM | Serum Urea After ([4]; Average): 10.4 mmol/L | Plasma Sodium % Change [4, 6]: −2% | Plasma Sodium During [4, 6]: 137 mEq/L | Serum Creatinine % Change [4, 6]: −24% | Serum Creatinine During [4, 6]: 189 µM | Serum Urea % Change [4, 6]: −72% | Serum Urea During [4, 6]: 8.8 mmol/L | Urinary Na over 24 hours % Change [4, 6]: 820% | Urinary Na over 24 hours During [4, 6]: 46 mEq/24 hr | Body Weight After [4, 6]: 74 kg | Body Weight % Change [4, 7]: −11% | Body Weight During [4, 7]: 74 kg | Paracenteses/Month % Change [4, 7]: −100% | Paracenteses/Month During [4, 7]: 0 /Month | Plasma Sodium % Change [4, 8]: 2% | Plasma Sodium During [4, 8]: 128 mEq/L | Serum Creatinine % Change [4, 8]: −46% | Serum Creatinine During [4, 8]: 208 µM | Serum Urea % Change [4, 8]: −37% | Serum Urea During [4, 8]: 23.2 mmol/L | Urinary Na over 24 hours During [4, 8]: 301 mEq/24 hr | Body Weight % Change [4, 9]: 11% | Body Weight During [4, 9]: 71 kg | Paracenteses/Month % Change [4, 9]: −25% | Paracenteses/Month During [4, 9]: 6 /Month | Volume Fluid Removed/Month % Change [4, 9]: −48% | Volume Fluid Removed/Month During [4, 9]: 42 L | Plasma Sodium % Change [4, 10]: 2% | Plasma Sodium During [4, 10]: 136 mEq/L | Serum Creatinine % Change [4, 10]: −50% | Serum Creatinine During [4, 10]: 116 µM | Serum Urea % Change [4, 10]: −46% | Serum Urea During [4, 10]: 9.1 mmol/L | Body Weight After [4, 10]: 128 kg | Plasma Sodium After [4, 10]: 140 mEq/L | Serum Creatinine After [4, 10]: 122 µM | Serum Urea After [4, 10]: 10.8 mmol/L | Body Weight % Change [4, 11]: −23% | Body Weight During [4, 11]: 99 kg | Paracenteses/Month % Change [4, 11]: −50% | Paracenteses/Month During [4, 11]: 2 /Month | Volume Fluid Removed/Month % Change [4, 11]: −65% | Volume Fluid Removed/Month During [4, 11]: 14 L | Plasma Sodium % Change [4, 12]: 15% | Plasma Sodium During [4, 12]: 141 mEq/L | Serum Creatinine % Change [4, 12]: −67% | Serum Creatinine During [4, 12]: 104 µM | Serum Urea % Change [4, 12]: −28% | Serum Urea During [4, 12]: 37.3 mmol/L | Urinary Na over 24 hours % Change [4, 12]: 1900% | Urinary Na over 24 hours During [4, 12]: 20 mEq/24 hr | Paracenteses/Month % Change [4, 13]: 50% | Paracenteses/Month During [4, 13]: 3 /Month | Volume Fluid Removed/Month % Change [4, 13]: −36% | Volume Fluid Removed/Month During [4, 13]: 9 L | Plasma Sodium % Change [4, 14]: −2% | Plasma Sodium During [4, 14]: 128 mEq/L | Serum Creatinine % Change [4, 14]: −19% | Serum Creatinine During [4, 14]: 55 µM | Serum Urea % Change [4, 14]: −17% | Serum Urea During [4, 14]: 5.3 mmol/L | Body Weight After [4, 14]: 77 kg | Serum Creatinine After [4, 14]: 55 µM | Serum Urea After [4, 14]: 10.5 mmol/L | Body Weight % Change [4, 15]: −10% | Body Weight During [4, 15]: 64 kg | Paracenteses/Month % Change [4, 15]: −33% | Paracenteses/Month During [4, 15]: 2 /Month | Volume Fluid Removed/Month % Change [4, 15]: −71% | Volume Fluid Removed/Month During [4, 15]: 6 L | Plasma Sodium % Change [4, 16]: 19% | Plasma Sodium During [4, 16]: 140 mEq/L | Serum Creatinine % Change [4, 16]: −54% | Serum Creatinine During [4, 16]: 90 µM | Serum Urea % Change [4, 16]: −68% | Serum Urea During [4, 16]: 6.6 mmol/L | Urinary Na over 24 hours % Change [4, 16]: 1869% | Urinary Na over 24 hours During [4, 16]: 315 mEq/24 hr | Body Weight After [4, 16]: 68 kg | Plasma Sodium After [4, 16]: 131 mEq/L | Serum Creatinine After [4, 16]: 137 µM | Serum Urea After [4, 16]: 10.0 mmol/L | Body Weight % Change [4, 17]: −14% | Body Weight During [4, 17]: 55 kg | Paracenteses/Month % Change [4, 17]: −100% | Paracenteses/Month During [4, 17]: 0 /Month | Volume Fluid Removed/Month % Change [4, 17]: −100% | Volume Fluid Removed/Month During [4, 17]: 0 L | overall average decrease of urea concentration in blood serum ([4]; all patients, during treatment): 45% | reduction of average monthly ascites fluid volume removed ([4]; during continuous infusion therapy vs prior to initiation): 55% | decrease of average body weight per patient ([4]; during therapy, proxy for ascitic fluid accumulation): 11% and 9 kg and ~19.8 lbs | improvement of ascites seen without diuretics ([4]; during treatment, number of patients): four of six patients | plasma sodium after the cessation of therapy ([4]; patient #6): remained normal | correction of severe hyponatremia ([4]; patients #4 and #6): corrected severe hyponatremia in two patients | average urinary sodium after starting therapy ([4]; three of six patients with data before and after starting continuous infusion, increased from 7): 127 mEq/24 h | average decrease in serum creatinine levels ([4]; treated group of patients): 47%
